# Results published in US4021563A, “Method of treating cardiac arrhythmia with γ-piperidino-butyrophenones” (priority 1975, dated 1977).
# “Also recorded” adds a separate entry of the source. Counter-ions that a name gives are not always drawn.
# Key:
# [1] = system: ouabain-induced arrhythmia; test: ouabain-induced arrhythmia in conscious rabbits, curative effect (reversal); format: in vivo, rabbit; conditions: reversal at least 1 min within 10 minutes
# From the text: (§1) Thus, acid-addition salts formed by admixture of a γ-piperidino-butyrophenone base with an equivalent of an acid, suitably in a neutral solvent, are formed with such acids as sulfuric, phosphoric, hydrochloric, hydrobromic, citric, lactic, tartaric, acetic, and related acids. For purposes of this invention, the substituted γ-piperidino-butyrophenones are equivalent to their non-toxic acid-addition salts. The antiarrhythmic activity of the compounds of the present invention compared with that of some clinically used antiarrhythmic drugs was determined as follows.
# (§2) Intravenous infusion of ouabain to conscious rabbits produces ventricular arrhythmias of short duration. An increase in the minimal dose of ouabain required to produce an arrhythmia may be taken as a measure of the antiarrhythmic action of the drug.
# A substance was considered curative, if it was able to reverse the ouabain-induced arrhythmia for at least 1 min. within 10 minutes after the injection.
# [2] = toxic effects of active doses in antiarrhythmic tests
# From the text: as §1, with “follows. The compounds were tested for their ability to prevent and reverse ouabain-induced arrhythmias in conscious rabbits, and the method used was essentially according to Basil et al. (Brit. J. Pharmacol. 1974, 50, 323- 33).” for “follows.”
# [3] = system: ouabain-induced arrhythmias; test: ouabain-induced arrhythmia in conscious rabbits, prophylactic effect; format: in vivo, rabbit; conditions: for arrhythmogenic dose of ouabain increased to more than 110 %, number of rabbits: 1 minute before ouabain; for arrhythmogenic dose of ouabain in % of control arrhythmogenic dose, m ± SD: physiol. saline 96 ± 14; for antiarrhythmic activity compared with clinically used drugs: prophylactic and curative effect
# From the text: as §1, §2
# In all experiments with drug treatment the control dose of ouabain required to produce arrhythmias in an animal was obtained the day before.
# The test compound was administered intravenously to rabbits 1 minute before the ouabain challenge, and the arrhythmogenic dose of ouabain after treatment was evaluated in percent of the control arrhythmogenic dose. If this dose amounts to more the 110 % of the control arrhythmogenic dose recorded the day before, the test compound is regarded as having antiarrhymic activity.
# [4] = system: arrhythmia induced by aconitine; conditions: in vivo; cited from earlier work
# [5] = system: ouabain-induced ventricular tachycardia and fibrillation; conditions: anaesthetized guinea pigs, effective dosage; cited from earlier work
# cardiac arrhythmia = conditions: cited from earlier work
# ventricular arrhythmia = test: intravenous metylperone in patients with myocardial infarction, ventricular arrhythmia and side effects; format: in vivo, human patients
# From the text: Equi-antiarrhythmic doses of previously used drugs produce various cardiovascular side effects as well as agitation and confusion.
# [6] = system: cardiac effects of catecholamines; conditions: Tuck 1973; Petersen 1974; cited from earlier work
# [7] = system: ventricular extrasystoles (VES); test: double-blind clinical test, ventricular extrasystoles in coronary care unit patients; format: in vivo, human patients
# Method: All patients with ventricular extrasystoles (VES) admitted to a coronary care unit suspected of having acute myocardial infarction are included in the investigation. This was carried out in a double-blind manner with metylperone against placebo (metylperone injectable without metylperone). When a patient arrives at the unit, they are monitored on an oscilloscope for registration of the electrocardiogram (ECG). In a 1 hour long period of observation the patient is characterized in respect to the type and the frequency of the arrhythmia. Depending on this and on the estimated age of the infarction, the patient is distributed to one of four groups. A bottle (metylperone or placebo) is chosen from a box, containing identical bottles, and in the following 10 minutes a total of 50 mg metylperone (or placebo) is injected intravenously as 5 injections with 2 min. intervals. The ECG registration is continued for 2 hours. All ECGes in the three hours period are analyzed manually and the arrhythmias are recorded according to frequency and type. The psychic status and the cardiovascular status are checked several times during the three hours.
# [8] = system: arrhythmia induced by aconitine; test: aconitine-induced arrhythmia; format: in vivo; conditions: 0.1-10.0 mg/kg
# tranquilizing effect = conditions: in vivo
smiles,measurement,setting,value
"CCCC1(CC)CCN(CCCC(=O)c2ccc(F)cc2)CC1 [FG 5226, 4-fluoro-γ-(4-ethyl-4-n-propyl-piperidino)-butyrophenone]","curative effect, number of rabbits reversed/tested",[1]; 0.1 mg/kg i.v.,3/4
same,"curative effect, number of rabbits reversed/tested",[1]; 1.0 mg/kg i.v.,2/4
same,toxic effects of the active doses,[2]; active antiarrhythmic doses,In contrast to metylperone and FG 5226 the active doses of the known antiarrhythmic drugs produced various toxic effects
same,"arrhythmogenic dose of ouabain increased to more than 110 %, number of rabbits","[3]; 0.1 mg/kg i.v., 4 rabbits",3 number of rabbits
same,"arrhythmogenic dose of ouabain in % of control arrhythmogenic dose, m ± SD",[3]; 0.1 mg/kg i.v.,109 ± 21 % of control arrhythmogenic do
same,antiarrhythmic activity compared with clinically used drugs,[3]; 0.1 mg/kg i.v.,"more effective than lidocaine 1-5 mg/kg, procainamide 1- 10 mg/kg, quinidine 1 mg/kg, and propranolol 0.5 mg/kg; also recorded: equiactive (i.e., equally active) with quinidine 10 mg/kg, and propranolol 2 mg/kg"
same,"arrhythmogenic dose of ouabain increased to more than 110 %, number of rabbits","[3]; 1.0 mg/kg i.v., 4 rabbits",1 number of rabbits
same,"arrhythmogenic dose of ouabain in % of control arrhythmogenic dose, m ± SD",[3]; 1.0 mg/kg i.v.,93 ± 18 % of control arrhythmogenic do
NC(=O)OC1CCN(CCCC(=O)c2ccc(F)cc2)C2CCCCC12 (stereo not shown) [L 7810],inhibition of arrhythmia induced by aconitine,[4],inhibit arrhythmia induced by aconitine
same,antagonism of ouabain-induced ventricular tachycardia and fibrillation,[5],0.3 to 3 mg/kg
same,antiarrhythmic properties / activity of prior art compounds,cardiac arrhythmia,exert antiarrhythmic properties
"CCN(CC)CC(=O)Nc1c(C)cccc1C [Lidocaine, lidocaine]","curative effect, number of rabbits reversed/tested",[1]; 1.0 mg/kg i.v.,1/3
same,"curative effect, number of rabbits reversed/tested",[1]; 5.0 mg/kg i.v.,2/4
same,"arrhythmogenic dose of ouabain increased to more than 110 %, number of rabbits","[3]; 1.0 mg/kg i.v., 4 rabbits",0 number of rabbits
same,"arrhythmogenic dose of ouabain in % of control arrhythmogenic dose, m ± SD",[3]; 1.0 mg/kg i.v.,73 ± 25 % of control arrhythmogenic do
same,"arrhythmogenic dose of ouabain increased to more than 110 %, number of rabbits","[3]; 5.0 mg/kg i.v., 5 rabbits",0 number of rabbits
same,"arrhythmogenic dose of ouabain in % of control arrhythmogenic dose, m ± SD",[3]; 5.0 mg/kg i.v.,91 ± 21 % of control arrhythmogenic do
"CC1CCN(CCCC(=O)c2ccc(F)cc2)CC1 [Metylperone, 4-fluoro-γ-(4-methyl-piperidino)-butyrophenone hydrochloride]","curative effect, number of rabbits reversed/tested",[1]; 0.1 mg/kg i.v.,5/5
same,"curative effect, number of rabbits reversed/tested",[1]; 1.0 mg/kg i.v.,5/5
same,side effects during treatment of cardiac arrhythmia,"ventricular arrhythmia; human, in vivo",lack of side effects
same,side effects in patients,"ventricular arrhythmia; human, in vivo, iv",without producing side effects
same,inhibition of ventricular arrhythmia in patients with myocardial infarction,ventricular arrhythmia; intravenous injection 10-50 mg,inhibit ventricular arrhythmia in patients with myocardial infarction
same,potentiation of catecholamines,[6],does not potentiate the cardiac effects of catecholamines
same,antiarrhythmic effect in patients with acute myocardial infarction,[7]; 50 mg i.v.,has an antiarrhythmic effect in patients with acute myocardial infarction
same,"mean total VES ± SD, 0 - 60 min. after inj.","[7]; AMI patients, N = 6, 50 mg i.v., placebo 418 ± 394",212 ± 138
same,"mean total VES ± SD, 61 - 120 min. after inj.","[7]; AMI patients, N = 6, 50 mg i.v., placebo 644 ± 815",93 ± 89
same,"mean total VES ± SD, control hour","[7]; AMI patients, N = 6, before injection (baseline)",372 ± 148
same,"mean total VES ± SD, 0 - 60 min. after inj.","[7]; not AMI patients, N = 2, 50 mg i.v., placebo 643 ± 290",251 ± 85
same,"mean total VES ± SD, 61 - 120 min. after inj.","[7]; not AMI patients, N = 2, 50 mg i.v., placebo 695 ± 240",348 ± 28
same,"mean total VES ± SD, control hour","[7]; not AMI patients, N = 2, before injection (baseline)",321 ± 18
same,aconitine inhibitory effect,[8],no aconitine inhibitory effect
same,toxic effects of the active doses,[2]; in vivo,In contrast to metylperone and FG 5226 the active doses of the known antiarrhythmic drugs produced various toxic effects
same,activity against ouabain-induced ventricular tachycardia in conscious rabbits,[3]; 0.1 mg/kg,extremely active
same,"arrhythmogenic dose of ouabain increased to more than 110 %, number of rabbits","[3]; 0.1 mg/kg i.v., 4 rabbits",3 number of rabbits
same,"arrhythmogenic dose of ouabain in % of control arrhythmogenic dose, m ± SD",[3]; 0.1 mg/kg i.v.,129 ± 20 % of control arrhythmogenic do
same,antiarrhythmic activity compared with clinically used drugs,"[3]; 0.1 mg/kg i.v., hydrochloride","more effective than lidocaine 1-5 mg/kg, procainamide 1- 10 mg/kg, quinidine 1 mg/kg, and propranolol 0.5 mg/kg; also recorded: equiactive (i.e., equally active) with quinidine 10 mg/kg, and propranolol 2 mg/kg"
same,"arrhythmogenic dose of ouabain increased to more than 110 %, number of rabbits","[3]; 1.0 mg/kg i.v., 4 rabbits",3 number of rabbits
same,"arrhythmogenic dose of ouabain in % of control arrhythmogenic dose, m ± SD",[3]; 1.0 mg/kg i.v.,126 ± 30 % of control arrhythmogenic do
same,tranquilizing effect,tranquilizing effect,has a tranquilizing effect
"CCN(CC)CCNC(=O)c1ccc(N)cc1 [Procainamide, procainamide]","curative effect, number of rabbits reversed/tested",[1]; 1.0 mg/kg i.v.,0/4
same,"curative effect, number of rabbits reversed/tested",[1]; 10.0 mg/kg i.v.,2/4
same,antiarrhythmic properties / activity of prior art compounds,cardiac arrhythmia,activity as antiarrhythmic agents
same,toxic effects of prior art antiarrhythmic drugs,cardiac arrhythmia,various toxic effects
same,"arrhythmogenic dose of ouabain increased to more than 110 %, number of rabbits","[3]; 1.0 mg/kg i.v., 4 rabbits",2 number of rabbits
same,"arrhythmogenic dose of ouabain in % of control arrhythmogenic dose, m ± SD",[3]; 1.0 mg/kg i.v.,111 ± 18 % of control arrhythmogenic do
same,"arrhythmogenic dose of ouabain increased to more than 110 %, number of rabbits","[3]; 10.0 mg/kg i.v., 4 rabbits",1 number of rabbits
same,"arrhythmogenic dose of ouabain in % of control arrhythmogenic dose, m ± SD",[3]; 10.0 mg/kg i.v.,104 ± 20 % of control arrhythmogenic do
"CC(C)NCC(O)COc1cccc2ccccc12 (stereo not shown) [Propranolol, propranolol]","curative effect, number of rabbits reversed/tested",[1]; 0.5 mg/kg i.v.,1/5
same,"curative effect, number of rabbits reversed/tested",[1]; 2.0 mg/kg i.v.,4/4
same,antiarrhythmic properties / activity of prior art compounds,cardiac arrhythmia,activity as antiarrhythmic agents
same,toxic effects of prior art antiarrhythmic drugs,cardiac arrhythmia,various toxic effects
same,"arrhythmogenic dose of ouabain increased to more than 110 %, number of rabbits","[3]; 0.5 mg/kg i.v., 4 rabbits",2 number of rabbits
same,"arrhythmogenic dose of ouabain in % of control arrhythmogenic dose, m ± SD",[3]; 0.5 mg/kg i.v.,98 ± 28 % of control arrhythmogenic do
same,"arrhythmogenic dose of ouabain increased to more than 110 %, number of rabbits","[3]; 2.0 mg/kg i.v., 4 rabbits",3 number of rabbits
same,"arrhythmogenic dose of ouabain in % of control arrhythmogenic dose, m ± SD",[3]; 2.0 mg/kg i.v.,121 ± 26 % of control arrhythmogenic do
"C=C[C@H]1C[N@@]2CC[C@H]1C[C@@H]2[C@@H](O)c1ccnc2ccc(OC)cc12 [Quinidine, quinidine]","curative effect, number of rabbits reversed/tested",[1]; 1.0 mg/kg i.v.,2/4
same,"curative effect, number of rabbits reversed/tested",[1]; 10.0 mg/kg i.v.,4/4
same,antiarrhythmic properties / activity of prior art compounds,cardiac arrhythmia,activity as antiarrhythmic agents
same,toxic effects of prior art antiarrhythmic drugs,cardiac arrhythmia,various toxic effects
same,"arrhythmogenic dose of ouabain increased to more than 110 %, number of rabbits","[3]; 1.0 mg/kg i.v., 4 rabbits",2 number of rabbits
same,"arrhythmogenic dose of ouabain in % of control arrhythmogenic dose, m ± SD",[3]; 1.0 mg/kg i.v.,104 ± 10 % of control arrhythmogenic do
same,"arrhythmogenic dose of ouabain increased to more than 110 %, number of rabbits","[3]; 10.0 mg/kg i.v., 4 rabbits",3 number of rabbits
same,"arrhythmogenic dose of ouabain in % of control arrhythmogenic dose, m ± SD",[3]; 10.0 mg/kg i.v.,131 ± 42 % of control arrhythmogenic do
CN(C)CCCN1c2ccccc2Sc2ccc(Cl)cc21 [chlorpromazine],potentiation of catecholamines,[6],potentiation of catecholamines
